Experimental data reported in US6448062B1, “Simultaneous cleaning and decontaminating compositions and methods” (priority 1998, dated 2002).
Read-outs that look alike come from different tables or passages of the source.

How the values were obtained:
[1] = system: Mycobacterium bovis (ATCC 35743); type: cell-based
Azocasein [2] = experiment: In-situ protease activity assay: azocasein hydrolysis (Abs390) in H2O2/enzyme solutions; conditions: for Absorbance (normalized with dilution factor) of hydrolyzed Azocasein solution at 390 nm: pH 8.5, 23° C., 1% azocasein; for Abs390 hydrolyzed azocasein solution: human chymotrypsin experiment, 23° C.
Description: Solutions of 7.5%^w/v H2O2 at various pH levels were prepared by adjusting the pH of 35%^w/w H2O2 solution (Degussa) with 10 mM K3PO4 in a volumetric flask in the presence of K2HPO4 (phosphate buffer, PB). The solution was diluted with 10 mM KH2PO4 solution of the same pH. […] Azocasein powder was added to the H2O2/Alcalase® mixed solutions to yield 0.4%^w/v azocasein. After 30 min at 23° C., 5 ml azocasein solution was mixed with 5 ml 10%^w/v TCA solution. Precipitates were removed after 15 min by filtration, and the supernatant Abs390 was measured.
One half hour prior to various time points (listed in Tables 5a-d), azocasein powder was added to the solution in an amount of 0.4% of the total solution weight. Abs390 of the solution was measured as in Example 4 except that the supernatant was diluted 6-7 fold to avoid saturation of the UV spectrophotometer.
An additional experiment employing the same method was conducted with human chymotrypsin.

[3] = 25 minutes contact at 20° C.; cited from earlier work
[4] = system: spores of Bacillus subtilis (ATCC #19659); experiment: AOAC test for Sporicidal Activity of Disinfectants, porcelain penicylinders, no organic soil load; type: cell-based; conditions: for Results: positive penicylinders: exposure 4 hours
Azocasein [5] = experiment: Azocasein hydrolysis (Abs390) by human trypsin or chymotrypsin in PAA/H2O2; conditions: 23° C.
Description: The activity for the PAA/H2O2 solution alone as a control is also given. […] A volume of 4.05 ml of 10 mM K3PO4 buffer was combined with 0.45 ml initial trypsin buffer solution and 45 mg Azocasein to prepare the trypsin/phosphate buffer solution for the test.
A 0.22%^w/v PAA/1.17%^w/v H2O2 solution was prepared using a dilution of Degussa's 4.9%^w/w PAA/26.6%^w/w H2O2 in a volumetric flask. A volume of 4.05 ml of the latter solution was mixed with 0.45 ml initial trypsin/phosphate buffer solution and 45 mg Azocasein powder.
At 2.8 and 7 h, 1.5 ml sample aliquots were removed from the above three solutions and reacted with 1.5 ml of 10%^w/v trichloroacetic acid stop reagent. After incubating for 15-20 min, the solutions were filtered using Whatman #3 filter paper with a syringe and a Gelman 13 mm filter holder. The filtered solutions were then analyzed with a Shimadzu UV-visible 1601 spectrophotometer Abs390.
An additional example with human chymotrypsin follows. The solutions were similarly prepared as above.

Azocasein [6] = experiment: Enzyme activity in 0.368% PAA/2% H2O2, modified Novo azocasein method
Description: In a 100 ml volumetric flask, a solution was prepared using 7.5 ml of 4.9%^w/w (Degussa) PAA, 1 ml enzyme, and diluted with 0.2 M tris(hydroxymethyl)aminomethane to control the pH at 8.5 to yield a final concentration of 0.368%^w/v PAA/2%^w/v H2O2. […] A timer was started as soon as the combinations of enzymes and PAA/H2O2 were mixed. At periodic intervals, aliquots of the enzyme/PAA/H2O2 solutions were removed and diluted 64 times to react with the 0.6%^w/v Azocasein substrate solution in a water bath at the modified temperature of 30° C. for 30 min. After stopping the reaction with 10% TCA and filtering the precipitate, the supernatants were analyzed on a spectrophotometer at 390 nm.

## OO [6% H2O2 pH 1.8, hydrogen peroxide]
[1]; contact time 5 min
  % Reduction: 98.65%
  log10 Reduction: 1.87
[1]; contact time 10 min
  % Reduction: 99.25%
  log10 Reduction: 2.13
[1]; contact time 15 min
  % Reduction: 99.51%
  log10 Reduction: 2.31
[1]; contact time 20 min
  % Reduction: 99.38%
  log10 Reduction: 2.21

## c1ccc2[nH]nnc2c1 [Benzotriazole, 1,2,3-benzotriazole]
Azocasein [2]; 7.4 mM Na3PO4, 0.5 h
  Absorbance (normalized with dilution factor) of hydrolyzed Azocasein solution at 390 nm: 0.0986
Azocasein [2]; 7.4 mM Na3PO4, 4.5 h
  Absorbance (normalized with dilution factor) of hydrolyzed Azocasein solution at 390 nm: 0.1536

## CC(=O)OO [PAA, peracetic acid]
[3]
  minimum effective concentration for high-level disinfection: 0.05 %w/w

## OO [Sample 10, hydrogen peroxide]
[4]
  Results: positive penicylinders: 0 positive

## OO [Sample 11, hydrogen peroxide]
[4]
  Results: positive penicylinders: 0 positive

## OO [Solutions of 7.5% H2O2 alone, hydrogen peroxide]
[4]
  exposure at which sporicidal (no positive penicylinders): ≤ 4 h

## Chymotrypsin
Azocasein [5]; pH 7.25, 2 h
  Absorbance at 390 nm of hydrolyzed Azocasein solution: 2.716
Azocasein [5]; pH 7.25, 4 h
  Absorbance at 390 nm of hydrolyzed Azocasein solution: 3.674
Azocasein [2]; 2 h
  Absorbance Ratio of Chymotrypsin/Azocasein solutions with and without 7.5% H2O2: 0.308
Azocasein [2]; 4 h
  Absorbance Ratio of Chymotrypsin/Azocasein solutions with and without 7.5% H2O2: 0.316
Azocasein [2]; pH 7.75, 2 h
  Abs390 hydrolyzed azocasein solution: 2.541
Azocasein [2]; pH 7.75, 4 h
  Abs390 hydrolyzed azocasein solution: 3.653

## Trypsin: human trypsin (Sigma)
Azocasein [5]; pH 7.5, 1% azocasein, 2.8 h
  Absorbance at 390 nm of hydrolyzed Azocasein solution: 1.4254
Azocasein [5]; pH 7.5, 1% azocasein, 7 h
  Absorbance at 390 nm of hydrolyzed Azocasein solution: 1.5588

B1: Alcalase ® 2.5 L: commercial subtilisin A liquid concentrate, 2.5 Anson units per gram (Novo Nordisk) (protein, UniProt P00780 106-379, looked up)
Subtilisin Carlsberg: AQTVPYGIPLIKADKVQAQGFKGANVKVAVLDTGIQASHPDLNVVGGASFVAGEAYNTDGNGHGTHVAGTVAALDNTTGVLGVAPSVSLYAVKVLNSSGSGSYSGIVSGIEWATTNGMDVINMSLGGASGSTAMKQAVDNAYAKGVVVVAAAGNSGSSGNTNTIGYPAKYDSVIAVGAVDSNSNRASFSSVGAELEVMAPGAGVYSTYPTNTYATLNGTSMASPHVAGAAALILSKHPNLSASQVRNRLSSTATYLGSSFYYGKGLINVEAAAQ
modifications: commercial liquid concentrate
Azocasein [6]; 0.368% PAA/2% H2O2, after 7.5 hours
  decrease in activity: 13%
Azocasein [6]; 0.368% PAA/2% H2O2, pH 8.5, 0 h
  Absorbance (proteolytic, 390 nm): 0.6534
Azocasein [6]; 0.368% PAA/2% H2O2, pH 8.5, 3.2 h
  Absorbance (proteolytic, 390 nm): 0.6417
Azocasein [6]; 0.368% PAA/2% H2O2, pH 8.5, 6.5 h
  Absorbance (proteolytic, 390 nm): 0.6729
Azocasein [6]; 0.368% PAA/2% H2O2, pH 8.5, 7.5 h
  Absorbance (proteolytic, 390 nm): 0.5689
